# Assay results reported in patent publication US20060094790A1, “Use of sphingosine kinase activator as skin disease treating agent and method for treating skin diseases using the same” (priority 2004, published 2006).
# Columns and labels:
# [1] = system: keratinocytes; assay: Differentiation of keratinocytes (western blotting of involucrin and keratin-1); format: cell-based; conditions: 10 μM, 48 hours, FIG. 2
# Procedure: In order to evaluate the effect of the above compound according to the present invention upon differentiation of keratinocytes, each of K6PC4, K6PC-5, K6PC-7 and K6PC-9 was dissolved in DMSO at a concentration of 10 μM and used as sample. Evaluation was performed by using the western blotting method. As differentiation markers, involucrin and keratine-1, which were differentiation markers of keratinocytes, were measured. Next, 48 hours after the treatment of samples, the culture solution was discarded and the cells were washed with PBS and collected by filtering. The collected cells were washed again and subjected to centrifugal separation to remove supernatant. The cells were dissolved in a solvent and subjected to centrifugal separation at 12,000 rpm for 10 minutes, thereby removing cell membranes, etc. Protein concentration was determined by the Bradford method. Proteins were separated by mini gel type SDS-PAGE (polyacrylamide gel electrohoresis) and transferred to a PVDF (polyvinylidene fluoride) membrane at 100V for 1 hour, so that gel-like proteins were subjected to blotting with a transfer membrane. Then, the membrane was colored with Ponceau S solution to determine whether transfer was accomplished or not. The membrane was blocked by using TTBS (TBS+0.1% Tween 20) solution containing 5% non-fat dried milk. In order to check the amount of involucrin as differentiation marker of keratinocytes, primary antibody involucrin (Neomarkers Co.) was diluted at a ratio of about 1/200 to 1.400, and keratin-1 (Covance Co.) was diluted at a ratio of about 1/1000. Reactions were performed overnight at 4° C. As secondary antibody, anti-mouse IgG and anti-rabbit IgG combined with horseradish peroxidase (HRP) was diluted at a ratio of 1:2000. Then, the secondary antibody was bonded to the primary antibody by making them react at room temperature for 1 hour. The membrane was washed with TTBS three times, reacted with an ECL substrate (Amersham Co.) for 1-3 minutes, and exposed to X-ray films.
# [2] = biological target: T1, sphingosine kinase (Mus musculus, UniProt Q8CI15); assay: Activation of sphingosine kinase (C17-sphingosine-1-phosphate production, HPLC); format: cell-based; conditions: F9-12 cells, 24 hours, 50 μM compound, PMA 300 nM; for C17-SIP Production: non-treated control 51.72; for increase in production of sphingosine-1-phosphate: versus non-treated control
# T1 construct: host or cells: F9-12 cells
# Procedure: The following test for activation of sphingosine kinase was performed to determine whether the effects of the above compounds upon intracellular calcium signal transfer as described in Example 1 were caused by activation of sphingosine kinase.
# F9-12 cells were treated with 300 nM of PMA ([…]) as positive control, and 50 μM of each of K6PC4 and K6PC-5 for 24 hours and collected. Then, activity of sphingosine kinase was measured as production of C17-sphingosine-1-phosphate based on 50 μg of protein. Sphingosine-1-phospate was extracted from the collected cells by the steps of: (1) treating with trypsin-EDTA, (2) centrifugal separation at 1,500 rpm for 10 minutes, and (3) washing with PBS, followed by freeze-drying. Then, PBS was added to the freeze-dried product and the resultant product was treated with ultrasonic waves to destroy cells. Sphingosine-1-phosphate was determined by HPLC, and OPA (o-phthalaldehyde) reagent and boric acid buffer were added to the extracted sample and the mixture was reacted at room temperature for 20 minutes. For the HPLC quantitive analysis, fluorescence intensity was measured at each wavelength of 340 nm and 455 nm with a solution in 90% acetonitrile, and a ratio to the internal standard was calculated.
# [3] = system: RBL-2H3 cell line; assay: Intracellular calcium movement (fura-2 fluorescence); format: cell-based; conditions: RBL-2H3 cells, fura-2, FIGS. 1a to 1d
# Procedure: First, the following experiment for calcium movement was performed in order to determine whether the above sphingosine kinase activator compounds activate sphingosine-1-phosphate, so as to cause intracellular calcium movement, which is a typical activity specific to sphingosine-1-phosphate.
# The sphingosine kinase activator compounds were determined for capability of inducing intracellular calcium movement by using a RBL-2H3 cell line, which is one of the typical cell lines showing intracellular calcium movement. The cells are cultured by using an RPMI 1640 culture medium and the cells were washed simultaneously with removal of the medium. Then, 10 μM of fura-2/Am and 250 μl M of sulfinpyrazone were added thereto, followed by incubation for 30 minutes. Cell pellets were obtained by centrifugal separation and the cell pellets were dispersed in Ca^2+-free Locke's solution. The dispersion was divided into a unit of 1×10^6 cells for use in treating samples. Next, the cells were introduced into a cuvet of a fluorescence microscope, each sphingosine kinase activator compound was added thereto, and intracellular calcium movement was observed by the fluorescence microscope (RF-5310PC, Spectrofluoro photometer, SHIMADZU). When intracellular calcium ions are detected, they cause fluorescence by bonding with fura-2. Therefore, a degree of calcium movement caused by a sample was evaluated by calculating a difference between the measurement of fura-2 ([…]) bonded with calcium and that of non-bonded fura-2 ([…]).
# [4] = system: fibroblasts; assay: Collagen synthesis in fibroblasts (PICP, collagen measuring kit); format: cell-based; conditions: 72 hours; for Amount of PICP produced in fibroblasts (average ± SEM): non-treated control 47.1 ± 9.7; for collagen synthesis increase as compared to the non-treated control: fibroblasts, 0.3 or 1.0 μg/ml (concentration not given)
# Procedure: The following experiment was performed by using fibroblasts in order to evaluate the effect of sphingosine kinase activator upon collagen synthesis.
# Each of K6PC4, K6PC-5, K6PC-7 and K6PC-9 was dissolved in DMSO at a concentration of 0.3 and 1.0 μg/ml. The solutions were used as samples and analyzed for collagen synthesis after incubation for 72 hours. 72 hours after the treatment of the sample, culture solution was discarded, cells were washed with serum-free DMEM three times, and cells were cultured again by using flesh serum-free DMEM. After incubation, supernatant in each well was combined and analyzed for the amount of PICP (procollagen type I C-peptide) by using a collagen measuring kit. The standard solution contained in the collagen measuring kit was diluted with a sample and absorption at 450 nm was measured to construct a standard concentration curve (see the following Table 2).
# To an antibody-coated microtiter plate comprising a primary collagen antibody applied unifomrily thereto, 100 μl of an antibody-POD conjugate solution and the cell supernatant collected as described above were added, followed by incubation at 37° C. for 3 hours, to induce an antigen-antibody reaction. Then, the reaction mixture was subjected to washing and color developing. After the reaction, the reaction mixture developed a yellow color, wherein the yellowness depended on reaction degrees. Also, 96 well plates developing a yellow color were determined at 450 nm by using a microtiter plate reader.
# [5] = system: hairless mouse; format: in vivo; conditions: mouse, in vivo
# Source text: To evaluate effect of the sphingosine kinase activator upon inhibition of steroid side effects, a steroid was applied to a hairless mouse. Typically, side effects caused by long-term or excessive dose of steroids include skin atrophy expressed by thinning of skin and weakening of skin functions, and a rebound phenomenon including reoccurrence of conditions caused by stopping use of steroids. It is reported that the main cause for such side effects is inhibition of fibroblast activity and a decrease in collagen production (S. Hammer et al., J. Cell. Biochem, 91, 840-851, 2004), Therefore, it is expected that the compound according to the present invention enhances collagen synthesis and differentiation of keratinocytes, and thus inhibits such side effects caused by steroids. To perform a test, a steroid, i.e. 0.05% chlobetason-17-propionate, and […]-5 according to the present invention (1.0% in PEG:EtOH=7:3) were applied to a hairless mouse and changes in the skin were observed. The treating agents were applied to the back of a hairless mouse 9 times per day and the tissue was collected. Then, the epidermis and dermis were observed by carrying out the H & E staining method (hematoxylin and eosin staining) known to one skilled in the art.
# T1 sequence (Q8CI15 1-381 isoform Q8CI15-3): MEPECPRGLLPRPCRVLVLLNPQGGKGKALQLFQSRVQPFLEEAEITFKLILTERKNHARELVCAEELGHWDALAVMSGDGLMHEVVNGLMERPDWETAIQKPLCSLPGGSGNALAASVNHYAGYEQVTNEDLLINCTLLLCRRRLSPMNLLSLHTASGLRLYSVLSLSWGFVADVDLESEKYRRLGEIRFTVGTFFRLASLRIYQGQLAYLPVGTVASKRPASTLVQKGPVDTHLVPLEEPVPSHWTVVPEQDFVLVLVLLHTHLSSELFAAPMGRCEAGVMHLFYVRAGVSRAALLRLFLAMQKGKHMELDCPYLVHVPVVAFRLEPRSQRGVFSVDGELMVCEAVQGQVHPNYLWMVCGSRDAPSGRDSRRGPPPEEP
Structure (SMILES),"expression of differentiation markers (involucrin, keratin-1) [1]",C17-SIP Production [2],increase in production of sphingosine-1-phosphate [2],intracellular calcium movement [3],Amount of PICP produced in fibroblasts (average ± SEM) ([4]; 0.3 μg/ml),Amount of PICP produced in fibroblasts (average ± SEM) ([4]; 1.0 μg/ml),collagen synthesis increase as compared to the non-treated control [4],changes in epidermis and dermis (steroid applied alone) [5]
"CCCCCCCC(=O)C(CCCCCC)C(=O)NC(C)(CO)CO (stereo not drawn) [K6PC-7, N-(2-methyl-1,3-dihydroxyisopropyl)-2-hexyl-3-oxo-decanamide]",expressed the differentiation markers,75.51 pmol/min/mg,about 46%,caused intracellular calcium movement,90.3 ± 12.5,87.3 ± 14.9,about 1.9 times,–
"CCCCCCCCCCCCCC(=O)O[C@@H]1[C@@H](C)[C@@]2(O)[C@@H](C=C(CO)C[C@]3(O)C(=O)C(C)=C[C@@H]23)[C@@H]2C(C)(C)[C@]12OC(C)=O [PMA, phorbol microstate acetate, reference compound]",–,76.76 pmol/min/mg,about 48%,–,–,–,–,–
"CCCCCCCC(=O)C(CCCCCC)C(=O)NCCO (stereo not drawn) [K6PC-9, N-ethanol-2-hexyl-3-oxo-decanamide]",expressed the differentiation markers,66.72 pmol/min/mg,about 30%,caused intracellular calcium movement,95.0 ± 5.2,86.7 ± 8.2,about 2.0 times,–
"CCC(=O)O[C@]1(C(=O)CCl)[C@@H](C)C[C@H]2[C@@H]3CCC4=CC(=O)C=C[C@]4(C)[C@@]3(F)[C@@H](O)C[C@@]21C [chlobetason-17-propionate, reference compound]",–,–,–,–,–,–,–,significant thinning of the epidermis and abnormal changes in the dermis
"CCCCCCCC(=O)C(CCCCCC)C(=O)NCC(O)CO (stereo not drawn) [K6PC-4, N-(2,3-dihydroxypropyl)-2-hexyl-3-oxo-decanamide]",expressed the differentiation markers,67.69 pmol/min/mg,about 30%,caused intracellular calcium movement,62.01 ± 2.5,80.51 ± 4.4,about 1.7 times,–
